This passage reports GI50 and TGI results from PubChem BioAssay (NCI).

Test systems include IGROV1 ovarian; RPMI-8226 leukemia; UO-31 renal; SK-MEL-2 melanoma; T-47D breast; COLO 205 colon; 786-0 renal; SR leukemia; CAKI-1 renal; MDA-MB-435.
Experiment in all cases: growth of human tumour cells (NCI), 48 h

Each structure is given as a SMILES string. Several values for one entry are separate records, joined by “and”; a condition that tells them apart may be missing. Equal entries are not always repeated.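 How tested: cells in 96-well plates exposed to compound for 48 hours at five concentrations. GI50: concentration for 50% inhibition of growth. At the TGI there is no net growth.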 Some results are limits rather than exact numbers.

On to `Cc1nc2sc(C(=O)Nc3cccc(Cl)c3)c(N)c2cc1C(O)c1ccccc1` (configuration not stated), for which the GI50 with IGROV1 ovarian was 2.27 µM; in the test with RPMI-8226 leukemia, 0.848 µM; in the test with UO-31 renal, 2.37 µM; in the test on SK-MEL-2 melanoma, 2.43 µM; in the test with T-47D breast it was 997 nM; in the test on COLO 205 colon, 3.31 µM. Further, the GI50 in the test with 786-0 renal was 2.47 µM; in the test with SR leukemia it was 0.414 µM; in the test on CAKI-1 renal, 0.789 µM; in the test on MDA-MB-435, 0.203 µM. Moreover, the TGI is 17 µM in the test on IGROV1 ovarian; above 100 µM with RPMI-8226 leukemia; 15.6 µM with UO-31 renal; 26.5 µM in the test with SK-MEL-2 melanoma; 33 µM in the test on T-47D breast; above 100 µM in the test with COLO 205 colon. For the same molecule, the TGI in the test on 786-0 renal was 20.7 µM; with SR leukemia, above 100 µM; with CAKI-1 renal it was 17 µM; with MDA-MB-435, 0.465 µM.
With `Nc1nc2c(ncn2C2OC(CO)C(O)C2O)c(=O)[nH]1` (configuration not stated), the GI50 in the test with IGROV1 ovarian was above 100 µM; in the test on RPMI-8226 leukemia it was > 100 µM and 30.8 µM; in the test on UO-31 renal it was above 100 µM; in the test with SK-MEL-2 melanoma, above 100 µM; in the test on T-47D breast it was above 100000 nM; in the test on COLO 205 colon, above 100 µM. The GI50 is above 100 µM with 786-0 renal, above 100 µM with SR leukemia, 55.5 µM in the test with CAKI-1 renal and above 100 µM with MDA-MB-435. Also, the TGI in the test on IGROV1 ovarian was > 100 µM and 170 µM; with RPMI-8226 leukemia it was > 100 µM and 139 µM; in the test on UO-31 renal, > 100 µM and 204 µM; in the test on SK-MEL-2 melanoma, > 100 µM and 158 µM; in the test with T-47D breast it was above 100 µM; with COLO 205 colon, > 100 µM and 113 µM. For the same molecule, the TGI is above 100 µM with 786-0 renal; above 100 µM in the test on SR leukemia; > 100 µM and 214 µM in the test with CAKI-1 renal; above 100 µM with MDA-MB-435.
With `CC(C)(C)OC(=O)CC(S(=O)(=O)c1ccccc1)S(=O)(=O)c1ccccc1`, the GI50 with IGROV1 ovarian was 18.5 µM; with RPMI-8226 leukemia, 3.49 µM; with UO-31 renal, 2.9 µM; with SK-MEL-2 melanoma, 17 µM; in the test on T-47D breast, 2320 nM; in the test on COLO 205 colon, 1.89 µM. Also, the GI50 with 786-0 renal was 13.9 µM; in the test with SR leukemia it was 3.1 µM; in the test with CAKI-1 renal it was 1.66 µM; with MDA-MB-435, 13.8 µM. Moreover, the TGI amounted to 38.5 µM in the test on IGROV1 ovarian; 19.7 µM with RPMI-8226 leukemia; 10.4 µM in the test with UO-31 renal; 36.2 µM in the test on SK-MEL-2 melanoma; 4.48 µM with T-47D breast; 3.32 µM in the test with COLO 205 colon. In addition, the TGI in the test with 786-0 renal came to 27.4 µM; with SR leukemia, 12.1 µM; in the test with CAKI-1 renal it was 3.52 µM; in the test on MDA-MB-435, 26.7 µM.
On to `O=C([CH-]C(=O)c1ccccc1)c1ccccc1.[CH2-]C.[CH2-]C.[Tl+3]`, for which the GI50 was 24.4 µM with IGROV1 ovarian; 10.4 µM in the test on RPMI-8226 leukemia; 22.3 µM in the test with UO-31 renal; 31.6 µM in the test on SK-MEL-2 melanoma; 17000 nM in the test on T-47D breast; 26.6 µM in the test with COLO 205 colon. Further, the GI50 in the test with 786-0 renal was 19.2 µM; in the test with SR leukemia, 6.35 µM; in the test with CAKI-1 renal, 27.2 µM; in the test with MDA-MB-435 it was 24.8 µM. Further, the TGI is above 100 µM in the test on IGROV1 ovarian; above 66 µM in the test on RPMI-8226 leukemia; above 77.2 µM in the test with UO-31 renal; above 92.4 µM in the test on SK-MEL-2 melanoma; above 100 µM in the test with T-47D breast; above 100 µM in the test with COLO 205 colon. Besides, the TGI with 786-0 renal is above 100 µM; in the test with SR leukemia, 50.1 µM; in the test on CAKI-1 renal, above 96.3 µM; with MDA-MB-435 it was above 100 µM.
As for `CN(Cc1cnc2nc(N)nc(N)c2n1)c1c(Cl)cc(C(=O)NC(CCC(=O)O)C(=O)O)cc1Br` (configuration not stated), the GI50 in the test with IGROV1 ovarian is below 0.01 µM; in the test with RPMI-8226 leukemia, below 0.01 µM; in the test on UO-31 renal, below 0.01 µM; with SK-MEL-2 melanoma, below 0.01 µM; in the test on T-47D breast it was 261 nM; with COLO 205 colon, 0.0535 µM. For the same molecule, the GI50 in the test on 786-0 renal, in the test on SR leukemia, with CAKI-1 renal and with MDA-MB-435 was below 0.01 µM throughout. For the same molecule, the TGI in the test with IGROV1 ovarian is 18.2 µM; in the test with RPMI-8226 leukemia, above 100 µM; in the test on SK-MEL-2 melanoma, above 100 µM; in the test with T-47D breast, above 100 µM; in the test with COLO 205 colon it was above 100 µM; in the test with 786-0 renal, above 100 µM. Also, the TGI with SR leukemia was above 100 µM; in the test on CAKI-1 renal, 0.0671 µM; in the test with MDA-MB-435, above 100 µM.
Turning to `CC(C)OC(=O)c1cc(NC(=S)OC(C)C)ccc1Cl`, the TGI was above 56.2 µM in the test on IGROV1 ovarian; above 76.8 µM with RPMI-8226 leukemia; 54.3 µM with UO-31 renal; 51.6 µM in the test with SK-MEL-2 melanoma; above 57.6 µM in the test on T-47D breast; 22.2 µM in the test on COLO 205 colon. Moreover, the TGI was above 55.9 µM with 786-0 renal, above 100 µM in the test on SR leukemia, 35.3 µM with CAKI-1 renal and 31.4 µM in the test with MDA-MB-435.
For the molecule `c1ccc2[nH]c(-c3cscn3)nc2c1`, the TGI in the test on IGROV1 ovarian, in the test on RPMI-8226 leukemia, in the test on UO-31 renal, in the test on SK-MEL-2 melanoma, in the test on T-47D breast and with COLO 205 colon was above 100 µM throughout. In addition, the TGI is above 100 µM with 786-0 renal; above 100 µM in the test on SR leukemia; > 100 µM and 37.2 µM in the test with CAKI-1 renal; above 100 µM in the test on MDA-MB-435. The GI50 was > 100 µM and 31.7 µM with RPMI-8226 leukemia; > 100 µM and 25.8 µM with UO-31 renal; > 100 µM and 38.7 µM in the test on SR leukemia.
In the case of `CN1CCC(C(=O)Nc2n[nH]c3nnc(-c4ccccc4)cc23)CC1`, the GI50 in the test with IGROV1 ovarian was above 25 µM; in the test on RPMI-8226 leukemia, above 25 µM; with UO-31 renal, above 25 µM; in the test with SK-MEL-2 melanoma it was above 20.1 µM; in the test with T-47D breast, above 25000 nM; in the test on COLO 205 colon, above 25 µM. The GI50 in the test on 786-0 renal, with SR leukemia, with CAKI-1 renal and in the test with MDA-MB-435 was above 25 µM in each case. Moreover, the TGI in the test with IGROV1 ovarian, with RPMI-8226 leukemia, in the test on UO-31 renal, in the test with SK-MEL-2 melanoma, in the test on T-47D breast and with COLO 205 colon was above 25 µM each time. Further, the TGI in the test with 786-0 renal, in the test on SR leukemia, in the test with CAKI-1 renal and with MDA-MB-435 was above 25 µM in each case.
